Measured values: US7465718B2, “Ansamycins having improved pharmacological and biological properties” (Conforma Therapeutics Corporation, priority 2002, dated 2008)

Tests used:
Her-2 = assay: HER2 inhibition assay (Her-2 degradation in MCF7 cells, flow cytometry); format: cell-based; settings: read-out: HER-2 degradation (IC50 nM)
Method: MCF7 cells are seeded in 24 well plates at a density of approximately 30,000 cells/well and allowed to grow for 16 hours in DMEM supplemented with 10% FBS. Drug is then added at a concentration range of 100 uM to 0.01 uM. Cells are incubated for an additional 24. […] 10,000 events were collected per sample. A fluorescence histogram was generated and the mean fluorescence intensity (mfi) of each sample was determined using Cellquest software. The background was defined as the mfi generated from cells incubated with control IgG, and was subtracted from each sample stained with the HER-2/neu Ab. Percent degradation of Her-2 was calculated as follows: % Her-2 degradation=(mfi HER-2 sample)/(mfi HER-2 untreated cells)×100 Water Solubility Studies

[1] = Water solubility studies (salts dissolved in water at room temperature); format: physicochemical; settings: thermodynamic from solid, HCl salt, read-out: Solubility of the HCl salt in H2O
Method: Various salts were prepared as described in the example section and dissolved in water at room temperature.

A549 xenografts = assay: A549 xenograft growth in vivo; settings: IP injections, three consecutive days each week for four weeks
From the text: Similar efficacy has been seen with five second-generation ansamycins, some of which are being developed as back-ups to Compound#237.

MDA435 breast tumor = MDA435 breast tumor model; format: in vivo, nude mice; settings: four courses of therapy; 25 or 30 mg/kg, 40 or 50 mg/kg
Method: When the tumors were ˜50 mm3 in size, the animals were randomized into groups of five (10 tumors/group). Therapy commenced under the schedule described for the A549 model. Animals were treated with vehicle (triangles) or one of two doses (25 or 30 mg/kg, squares; 40 or 50 mg/kg, circles) of drugs.

SKOV-3 ovarian xenograft = SKOV-3 ovarian xenograft model; format: in vivo; settings: tumors 200 mm3 before commencement of treatment
From the text: Compounds have also been tested in HER-2 over-expressing tumor models such as BT474 breast and SKOV-3 ovarian carcinoma A therapy experiment with SKOV-3 is shown in FIG. 6. The treatment, doses, and schedule were the same as used in the A549 and MDA435 experiments. In this case, the tumors were allowed to become established and grow to a relatively large size (200 mm3) before commencement of treatment.

[2] = tested on: primary human breast tumor xenograft; assay: Transplantable primary human breast tumor xenograft model; format: in vivo; settings: 30 mg/kg intraperitoneally
[3] = tested on: HSP90 (cell lysate, high affinity); assay: Biotin-geldanamycin competition binding, HSP90 in cell lysate (high affinity)
rHsp90 (low affinity) = assay: Biotin-geldanamycin competition binding, purified native HSP90 protein (rHsp90, low affinity); settings: read-out: rHsp90 (low affinity) IC50 nM; inhibition of biotin-GM binding to purified HSP90, 4° C.
PBMC = assay: MTS assay to measure cytotoxicity of PBMC; format: cell-based, human; settings: PBMCs without virus, read-out: TC50 (μM) (50% cytotoxicity)
Method: PBMC's in 96 well plates that were treated with compounds (without virus) were assayed for cell viability and compound toxicity using an MTS assay (CellTiter 96 Aqueous Non-Radioactivity Cell Proliferation Assay, Promega, Madison; Wis.).

HIV-1ROJO = assay: Anti-HIV PBMC assay (reverse transcriptase activity in supernatant)

## COC1C=CC=C(C)C(=O)NC2=CC(=O)C(NCCCNCCCNC3=C4CC(C)CC(OC)C(O)C(C)C=C(C)C(OC(N)=O)C(OC)C=CC=C(C)C(=O)NC(=CC3=O)C4=O)=C(CC(C)CC(OC)C(O)C(C)C=C(C)C1OC(N)=O)C2=O (stereo not shown) [Compound #237]
Her-2
  IC50: 20 nM
[1]
  solubility: ≥ 13 mg/mL
A549 xenografts
  growth of A549 xenografts: blocks the growth
MDA435 breast tumor
  inhibition of tumor growth in MDA435: 70 to 100%
SKOV-3 ovarian xenograft
  tumor growth in SKOV-3 xenograft: suppressed tumor growth almost completely
[2]
  tumor growth inhibition in primary human breast tumor xenograft: 86%
other
  melting point: 165 °C
[3]; rHsp90 (low affinity) IC50 over lysate (high affinity) IC50
  ratio: 67
[3]; read-out: Lysate (high affinity) IC50 nM, inhibition of biotin-GM binding to HSP90 in cell lysate, 4° C.
  IC50: 30 nM
rHsp90 (low affinity)
  IC50: 2000 nM

## Cc1cn([C@H]2C[C@H](N=[N+]=[N-])[C@@H](CO)O2)c(=O)[nH]c1=O [AZT Control, reference compound]
PBMC
  CC50: > 1 µM
HIV-1ROJO; HIV-1ROJO in PBMCs
  TI (therapeutic index, TC50/IC50): >197.6
HIV-1ROJO; read-out: IC50 (μM) (50% inhibition of virus replication), HIV-1ROJO in fresh human PBMCs, 7 days
  IC50: 0.0051 µM
